Measurements taken from US6355428B1, “Nucleic acid ligand interaction assays” (Genelabs Technologies, Inc., priority 1998, dated 2002).
Starred links: 1 amine or outer side, 2 acyl side, 3 side chain; linkers in the order of their positions; H or OH if unused. Positions of bridges follow the written chain, without caps; N, C: chain ends. Non-standard residues stand in square brackets, D forms with d. Residues, ends and D or L forms follow the SMILES beside them. Chains are numbered I, II in the order given. Actinocin(9to1) = Cc1c2oc3c(C)ccc(C(=O)[*:1])c3nc-2c(C(=O)[*:2])c(N)c1=O; NMeV = CN[C@H](C(=O)O)C(C)C; Sar = CNCC(=O)O

Tests used:
[1] = tested on: F/Q indicator oligonucleotide pairs (Table I); assay: Fluorescence quenching direct binding assay, panel of F/Q indicator oligonucleotide pairs; conditions: concentrations up to 5 μM; tRNA added
Protocol: (§1) The specific examples described in this section employ fluorescence quenching as the detection system. In these examples, because conditions are adjusted to maintain the oligonucleotides in single-stranded form in the absence of the ligand, the assay starts with the system at a high or maximum level of fluorescence, and fluorescence generally decreases, depending on binding affinity, as the ligand is added.
In the Figure legends, RNA oligonucleotides are denoted by an “r” at the beginning of the sequence, and single stranded controls by “ss” at the end of the sequence. These single stranded sequence, are used alone in control experiments, which thus employ only an “F” strand and no complementary quenching strand. Any quenching of fluorescence that is not due to hybridization can thus be acounted for. Maximum quenching expected on complete hybridization of these oligonucleotides is 85-90%; therefore some signal remains after complete hybridization. […]
According to the general method described above, increasing amounts of netropsin or actinomycin, respectively, were added to mixtures of selected F/Q indicator oligonucleotide pairs, whose sequences are shown in the legends of FIGS. 1 and 3. […] The Figures show the level of fluorescence observed, relative to a control having no added drug, for each indicator pair (or single strand) as the level of added drug was increased. […]

[2] = tested on: A/T rich, G/C rich and mixed sequence DNA oligonucleotides; assay: SPA direct binding assay, sequence preference over panel of indicator oligonucleotides; conditions: A/T rich 5′-AAAATAATAAAG, G/C rich 5′-GGCGCGG, mixed 5′-GTTGCAGATC; increasing drug
Excerpt: This technology can be applied to studies of ligand binding as disclosed herein. […] These beads are impregnated with scintillant. The second oligonucleotide is labeled with a weak β-emitter, such as ^3H or ^33P. The radioactive second oligonucleotide is mixed with a solution of the beads under conditions at which the first and second oligonucleotides exist primarily as single strands, as described above. The signal will thus be low, as the oligonucleotides are non-hybridized. When ligand is added, the duplex form is stabilized, and the increased proximity of the radioactive isotope (e.g., ^3H, ^33P) in the second oligonucleotide causes the bead to which the first oligonucleotide is bound to scintillate. A signal thus indicates the presence of an effective binding ligand molecule; test sequences giving higher signals indicate the relative preference for different sequences.
Indicator oligonucleotides as shown in Table 1 were used in this assay, as shown in Table II and FIGS. 4A-E. One strand of each duplex was labeled with biotin at the 5′-end, and the complementary strand was 3′-labeled with ^33P. The two complementary strands were incubated with streptavidin-coated SPA beads (Amersham, Arlington Heights, Ill.) at room temperature in a buffer containing 20 mM HEPES, pH 7.5, 0.1 mM EDTA, and 20 mM NaCl. In the absence of ligand, and under these conditions, the oligonucleotides exist in single-stranded conformation. As a result, the oligonucleotide containing the radioactive label is not in close proximity to the SPA bead, and the light given off by the beads is low, i.e., at background. As a duplex-stabilizing ligand is added, the radioactive ^33P is brought into close proximity to the SPA bead, and the light emitted from the SPA bead increases.

[3] = tested on: RNA 5′-rCUAGAUCUGA-3′ (SEQ ID NO: 23) double stranded RNA probe; assay: Fluorescence quenching direct binding assay, RNA; conditions: increasing bekanomycin
Protocol: as §1
In the Figure legends, RNA oligonucleotides are denoted by an “r” at the beginning of the sequence, and single stranded controls by “ss” at the end of the sequence. These single stranded sequence, are used alone in control experiments, which thus employ only an “F” strand and no complementary quenching strand. Any quenching of fluorescence that is not due to hybridization can thus be acounted for. Maximum quenching expected on complete hybridization of these oligonucleotides is 85-90%; therefore some signal remains after complete hybridization. The signal is plotted so that it is normalized to the control signal in the absence of ligand.
Netropsin has been shown in previous studies to bind preferentially to A/T rich regions of DNA. […] Netropsin also binds well to the sequence 5′-GCGGTATTT-3′ (SEQ ID NO: 12), which is a useful “indicator” probe (as discussed below), having both C/G and A/T rich sequences. […]

Compound	sequences bound (FIG. 3B) [1]	sequence preference of binding (FIGS. 4A-E) [2]	binding preference over all other test oligonucleotides (FIG. 3C) [3]
Cc1c2oc3c(C)ccc(C(=O)N[C@@H]4C(=O)N[C@H](C(C)C)C(=O)N5CCC[C@H]5C(=O)N(C)CC(=O)N(C)[C@@H](C(C)C)C(=O)O[C@@H]4C)c3nc-2c(C(=O)N[C@@H]2C(=O)N[C@H](C(C)C)C(=O)N3CCC[C@H]3C(=O)N(C)CC(=O)N(C)[C@@H](C(C)C)C(=O)O[C@@H]2C)c(N)c1=O [actinomycin D] (I: T[dV]P[Sar][NMeV] / II: T[dV]P[Sar][NMeV]; ester I:1-I:C, II:1-II:C; linker I:N-II:N via Actinocin(9to1))	binding only to the C/G containing sequences (SEQ ID NOS: 6, 8, and 12)	preferred GC-rich sequences	
NCC1OC(OC2C(N)CC(N)C(OC3OC(CO)C(O)C(N)C3O)C2O)C(N)C(O)C1O (centres unmarked) [Bekanomycin, bekanomycin]			very strong preference for the double stranded RNA probe
CC(=O)NCC(=O)O.CC(=O)NCC(=O)O.N=C(N)c1ccc(N=NNc2ccc(C(=N)N)cc2)cc1 [berenil]		no strong preference	
COC(C(=O)C(O)C(C)O)C1Cc2cc3cc(OC4CC(OC5CC(O)C(OC)C(C)O5)C(OC(C)=O)C(C)O4)c(C)c(O)c3c(O)c2C(=O)C1OC1CC(OC2CC(OC3CC(C)(O)C(OC(C)=O)C(C)O3)C(O)C(C)O2)C(O)C(C)O1 (centres unmarked) [chromomycin A]		preferred GC-rich sequences	
